We go through three compounds from paper PMC5352051, “Identification of a novel Polo-like kinase 1 inhibitor that specifically blocks the functions of Polo-Box domain” (Oncotarget, 2016).

Each structure is given as a SMILES string.

Assay [1] concerns the target T1, Plk2 PBD (Homo sapiens, UniProt Q9NYY3).
T1 construct: (326-603 aa), Plk2 (355-685 aa), and Plk3 (335-646 aa); GST (N); made in house; host or cells: E. coli Rosetta BL21(DE3)
T1 sequence (Q9NYY3 355-685): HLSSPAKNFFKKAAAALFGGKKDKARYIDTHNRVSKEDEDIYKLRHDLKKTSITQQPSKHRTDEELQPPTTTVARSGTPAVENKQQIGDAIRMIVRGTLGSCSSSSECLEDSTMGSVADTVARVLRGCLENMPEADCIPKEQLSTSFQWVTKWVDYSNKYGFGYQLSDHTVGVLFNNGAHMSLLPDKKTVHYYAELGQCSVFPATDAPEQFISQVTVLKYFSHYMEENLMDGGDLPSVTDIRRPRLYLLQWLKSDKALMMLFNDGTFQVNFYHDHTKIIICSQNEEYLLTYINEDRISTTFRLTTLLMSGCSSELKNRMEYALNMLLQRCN
The experiment in a line: Fluorescence polarization assay, Plk2 PBD / FITC-labeled phosphopeptide. Format: binding. The note with it: FP assay, 1 hr preincubation at RT, read-out: Apparent IC50. Here is the method:
FP assay was performed as follow. Briefly, 30 μL Plk1 PBD proteins (400 nM) were incubated with 0.3 μL tested compounds (1 mg/mL) with shaking for 1 hr at room temperature (RT) prior to addition of 30 μL FITC-Poloboxtide (FITC-GPMQSpTPLNG-OH; λex/λem: 485/535 nm; 60 nM) in FP buffer (50 mM Tris-HCl, 10 mM NaCl, 1 mM EDTA pH8.0). Three wells containing 30 μL FITC-Poloboxtide (60 nM) and 30 μL Plk1 PBD (400 nM) were used as negative control (0% inhibition); three wells containing 60 μL FITC-Poloboxtide (30 nM) only were used as positive control (100% inhibition). Fluorescence polarization was analyzed after incubation of FITC-Poloboxtide for 15 min in a 384-well black opaque microplate (Cat# 6007270, PerkinElmer) using Envision Multilabel Reader (PerkinElmer) at 25°C. We calculated the percentage of inhibition for each sample as follows: Inhibition(%)=Negative−Sample/Negative−Positive×100%
We plotted the inhibition values and determined IC50 using GraphPad Prism5.0. Together with the FITC-labeled peptides used for Plk1 PBD as mentioned above, the following peptides were used for specificity assays, FITC-GPMQTSpTPKNG-OH (Plk2 PBD), FITC-GPLATSpTPKNG-OH (Plk3 PBD). As described above for the FP assay, proteins were used at the following final concentrations: Plk1 PBD, 200 nM; Plk2 PBD, 450 nM; Plk3 PBD, 600 nM. All FITC-labeled peptides were chemically synthesized (China Peptides Co., Ltd., Shanghai) and further verified by mass spectrometry, and the purity is more than 95.0%.
Background: In fluorescence polarisation assays a small probe gives low polarisation when free and higher when bound to something large.

Assay [2] concerns the target T2, Plk3 PBD (Homo sapiens, UniProt Q9H4B4).
T2 construct: (326-603 aa), Plk2 (355-685 aa), and Plk3 (335-646 aa); GST (N); made in house; host or cells: E. coli Rosetta BL21(DE3)
T2 sequence (Q9H4B4 335-646): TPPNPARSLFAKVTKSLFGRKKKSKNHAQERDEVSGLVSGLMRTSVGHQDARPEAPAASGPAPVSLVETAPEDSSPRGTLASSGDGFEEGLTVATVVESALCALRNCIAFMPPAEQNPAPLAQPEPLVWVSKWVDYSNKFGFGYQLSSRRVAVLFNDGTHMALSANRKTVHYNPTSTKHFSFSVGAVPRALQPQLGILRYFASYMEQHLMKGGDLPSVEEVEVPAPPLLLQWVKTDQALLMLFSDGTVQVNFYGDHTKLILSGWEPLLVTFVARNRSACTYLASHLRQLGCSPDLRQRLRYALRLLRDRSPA
The experiment in a line: Fluorescence polarization assay, Plk3 PBD / FITC-labeled phosphopeptide. In kind it is binding. Here is the method: FP assay was performed as follow. […] We calculated the percentage of inhibition for each sample as follows: Inhibition(%)=Negative−Sample/Negative−Positive×100%
We plotted the inhibition values and determined IC50 using GraphPad Prism5.0. Together with the FITC-labeled peptides used for Plk1 PBD as mentioned above, the following peptides were used for specificity assays, FITC-GPMQTSpTPKNG-OH (Plk2 PBD), FITC-GPLATSpTPKNG-OH (Plk3 PBD).

Assay [3] concerns Plk1, Cyclin B1 and pHH-3 in HeLa cells. The experiment in a line: Western blot of mitotic markers. The following applies: synchronized HeLa, 50 ng/mL, 16 hrs, control for mitotic arrest. Format: cell-based, human. On the procedure: HeLa cells were collected after trypsinization and lysed with RIPA buffer. Equal amount of proteins (30 μg/lane) were loaded, separated by 15% SDS-PAGE. After blocking with blocking buffer for 2 hrs at RT, the membrane was incubated with the following primary antibodies diluted in blocking buffer overnight at 4°C: anti-hPlk1 mouse monoclonal antibody (Cat# P5998; Sigma; 1:3000), anti-CyclinB1 rabbit polyclonal antibody (Cat# SAB4503501; Sigma; 1:2000), anti-pHH3 rabbit monoclonal antibody (Cat# 04-817; Millipore; 1:2000), anti-GAPDH rabbit polyclonal antibody (Cat# P30008; Abmart; 1:2000). The membrane was washed 3 times and then incubated with Horseradish Peroxidase-conjugated secondary antibodies for 1 hr at RT and visualized with ECL system (Millipore). The level of GAPDH was used as the loading control.
In general terms: Immunoblotting shows a protein as a band on a membrane.

As to `CC1=CC(=O)C(C(C)C)=CC1=O` [TQ, Thymoquinone, reference compound], the concentration for half-maximal inhibition (IC50) in assay [1] stood at 3.65 ± 0.96 µM; in assay [2], 18.9 ± 1.32 µM. As for `COC(=O)Nc1nc2ccc(C(=O)c3cccs3)cc2[nH]1` [Nocodazole, reference compound], the “mitotic markers (Plk1, Cyclin B1, pHH-3) protein levels” value in assay [3] is recorded as “increase of protein levels”. Consider `CC1=CC(=O)C(C(C)C)=C/C1=N/OC(=O)c1ccccc1C` [Poloxin, reference compound], for which, in assay [1], the concentration for half-maximal inhibition (IC50) is 15.6 ± 2.26 µM.

In general, IC50 refers to the concentration at which inhibition is half-maximal.
